Results published in PubChem BioAssay AID270 (DTP/NCI, 2004).
“And” between values parts separate entries of the source, which are not always exact repeats. Equal values may be shown once. Records with an inconclusive call do not appear.

Tested on: BDF1 mice, s.c. Lewis lung carcinoma, T/C %
Assay: NCI In Vivo Anticancer Drug Screen. Data for tumor model Lewis Lung Carcinoma (subcutaneous) in B6D2F1 (BDF1) mice
In short: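 Transplanted tumors grown in mice; compound vs vehicle dosing; endpoint survival or tumor size; ratio T/C.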

With `O=C(O)C(=O)O.[U]` the T/C (endpoint: mean tumor weight, dose: 5.0 mg/kg/injection, schedule: Q01DX011 (ip), vehicle: carboxymethylcellulose (CMC), higher = larger tumour) was 37 % of control, the T/C (endpoint: mean tumor weight, dose: 10.0 mg/kg/injection, schedule: Q01DX011 (ip), vehicle: carboxymethylcellulose (CMC), higher = larger tumour) was 55 % of control and 78 % of control and the T/C (endpoint: mean tumor weight, dose: 10.0 mg/kg/injection, schedule: Q01DX011 (ip), vehicle: saline, higher = larger tumour) was 42 % of control. The T/C (endpoint: mean tumor weight, dose: 20.0 mg/kg/injection, schedule: Q01DX011 (ip), vehicle: saline, higher = larger tumour) was 27 % of control, the T/C (endpoint: median survival time, dose: 4.0 mg/kg/injection, schedule: Q01DX009 (ip), vehicle: Klucel (hydroxypropylcellulose) (HPC), higher = longer survival) was 103 % of control and the T/C (endpoint: median survival time, dose: 16.0 mg/kg/injection, schedule: Q01DX009 (ip), vehicle: Klucel (hydroxypropylcellulose) (HPC), higher = longer survival) was 101 % of control.
`COc1cc(OC)cc(-c2cc(=O)c3c(OC)c(OC)c(OC)c(OC)c3o2)c1` was tested, and the T/C (endpoint: mean tumor weight, dose: 25.0 mg/kg/injection, schedule: Q01DX011 (sc), vehicle: steriod suspending solution, higher = larger tumour) was 64 % of control, the T/C (endpoint: mean tumor weight, dose: 50.0 mg/kg/injection, schedule: Q01DX011 (sc), vehicle: steriod suspending solution, higher = larger tumour) was 87 % of control and the T/C (endpoint: mean tumor weight, dose: 100.0 mg/kg/injection, schedule: Q01DX011 (sc), vehicle: steriod suspending solution, higher = larger tumour) was 82 % of control. The T/C (endpoint: mean tumor weight, dose: 200.0 mg/kg/injection, schedule: Q01DX011 (sc), vehicle: steriod suspending solution, higher = larger tumour) was 81 % of control.
With `CC(C)(C)c1ccc(CN2CCN(C(c3ccccc3)c3ccc(Cl)cc3)CC2)cc1` (stereo not given) the T/C (endpoint: median survival time, dose: 0.5 mg/kg/injection, schedule: Q01DX009 (ip), vehicle: saline with Tween-80, higher = longer survival) was 112 % of control and the T/C (endpoint: median survival time, dose: 2.0 mg/kg/injection, schedule: Q01DX009 (ip), vehicle: saline with Tween-80, higher = longer survival) was 112 % of control and 155 % of control and 233 % of control.
`Oc1ccc(Nc2ccnc3cc(Cl)ccc23)cc1CN(CCCl)CCCl` was tested, and the T/C (endpoint: median survival time, dose: 2.5 mg/kg/injection, schedule: Q01DX009 (ip), vehicle: saline, higher = longer survival) was 108 % of control.
With `O=c1cc(-c2ccc(O)cc2)oc2c(O)c(O)c(O)c(O)c12` the T/C (endpoint: mean tumor weight, dose: 50.0 mg/kg/injection, schedule: Q01DX011 (ip), vehicle: saline, higher = larger tumour) was 70 % of control, the T/C (endpoint: mean tumor weight, dose: 100.0 mg/kg/injection, schedule: Q01DX011 (ip), vehicle: saline, higher = larger tumour) was 73 % of control and the T/C (endpoint: mean tumor weight, dose: 200.0 mg/kg/injection, schedule: Q01DX011 (ip), vehicle: saline, higher = larger tumour) was 43 % of control.
In the case of `O=c1cc(-c2ccccc2)oc2cccc(O)c12`, the T/C (endpoint: mean tumor weight, dose: 50.0 mg/kg/injection, schedule: Q01DX010 (ip), vehicle: saline, higher = larger tumour) is reported as 73 % of control, the T/C (endpoint: mean tumor weight, dose: 100.0 mg/kg/injection, schedule: Q01DX010 (ip), vehicle: saline, higher = larger tumour) is reported as 70 % of control and the T/C (endpoint: mean tumor weight, dose: 200.0 mg/kg/injection, schedule: Q01DX010 (ip), vehicle: saline, higher = larger tumour) is reported as 82 % of control. The T/C (endpoint: mean tumor weight, dose: 400.0 mg/kg/injection, schedule: Q01DX010 (ip), vehicle: saline, higher = larger tumour) was 67 % of control.
`S=c1c2[nH]cnc2ncn1CCSC1=NC=NC2=NC=NC21` (stereo not given) was tested, and the T/C (endpoint: mean tumor weight, dose: 50.0 mg/kg/injection, schedule: Q01DX011 (ip), vehicle: other, higher = larger tumour) was 96 % of control, the T/C (endpoint: mean tumor weight, dose: 100.0 mg/kg/injection, schedule: Q01DX011 (ip), vehicle: other, higher = larger tumour) was 53 % of control and the T/C (endpoint: mean tumor weight, dose: 200.0 mg/kg/injection, schedule: Q01DX011 (ip), vehicle: other, higher = larger tumour) was 61 % of control. The T/C (endpoint: mean tumor weight, dose: 400.0 mg/kg/injection, schedule: Q01DX011 (ip), vehicle: other, higher = larger tumour) was 37 % of control.
`[CH3][Sn]([CH3])([CH3])[O]C(=O)CCl` was tested, and the T/C (endpoint: median survival time, dose: 0.19 mg/kg/injection, schedule: Q01DX009 (ip), vehicle: saline, higher = longer survival) was 100 % of control, the T/C (endpoint: median survival time, dose: 0.38 mg/kg/injection, schedule: Q01DX009 (ip), vehicle: saline, higher = longer survival) was 104 % of control and the T/C (endpoint: median survival time, dose: 0.75 mg/kg/injection, schedule: Q01DX009 (ip), vehicle: saline, higher = longer survival) was 88 % of control and 97 % of control.
With `NC(=S)N/N=C/c1ccc(O)cn1` the T/C (endpoint: median survival time, dose: 18.8 mg/kg/injection, schedule: Q01DX009 (ip), vehicle: saline with Tween-80, higher = longer survival) was 94 % of control, the T/C (endpoint: median survival time, dose: 37.5 mg/kg/injection, schedule: Q01DX009 (ip), vehicle: saline with Tween-80, higher = longer survival) was 106 % of control and 119 % of control and the T/C (endpoint: median survival time, dose: 75.0 mg/kg/injection, schedule: Q01DX009 (ip), vehicle: saline with Tween-80, higher = longer survival) was 97 % of control. For the same molecule, the T/C (endpoint: median survival time, dose: 150.0 mg/kg/injection, schedule: Q01DX009 (ip), vehicle: saline with Tween-80, higher = longer survival) was 121 % of control.
For `CC[C@H]1CN2CCc3cc(OC)c(OC)cc3[C@@H]2C[C@@H]1C[C@H]1NCCc2c1[nH]c1ccc(O)cc21`, the T/C (endpoint: median survival time, dose: 0.25 mg/kg/injection, schedule: Q01DX009 (ip), vehicle: Klucel (hydroxypropylcellulose) (HPC), higher = longer survival) was 103 % of control, the T/C (endpoint: median survival time, dose: 0.5 mg/kg/injection, schedule: Q01DX009 (ip), vehicle: Klucel (hydroxypropylcellulose) (HPC), higher = longer survival) was 93 % of control and the T/C (endpoint: median survival time, dose: 1.0 mg/kg/injection, schedule: Q01DX009 (ip), vehicle: Klucel (hydroxypropylcellulose) (HPC), higher = longer survival) was 90 % of control.
`O=S(=O)(O)O` was tested, and the T/C (endpoint: median survival time, dose: 6.25 mg/kg/injection, schedule: Q01DX009 (ip), vehicle: Klucel (hydroxypropylcellulose) (HPC), higher = longer survival) was 94 % of control and 97 % of control and 121 % of control, the T/C (endpoint: median survival time, dose: 12.5 mg/kg/injection, schedule: Q01DX009 (ip), vehicle: Klucel (hydroxypropylcellulose) (HPC), higher = longer survival) was 88 % of control and 91 % of control and 94 % of control and the T/C (endpoint: median survival time, dose: 25.0 mg/kg/injection, schedule: Q01DX009 (ip), vehicle: Klucel (hydroxypropylcellulose) (HPC), higher = longer survival) was 94 % of control and 102 % of control and 107 % of control. For the same molecule, the T/C (endpoint: median survival time, dose: 50.0 mg/kg/injection, schedule: Q01DX009 (ip), vehicle: Klucel (hydroxypropylcellulose) (HPC), higher = longer survival) was 70 % of control and 94 % of control, the T/C (endpoint: median survival time, dose: 100.0 mg/kg/injection, schedule: Q01DX009 (ip), vehicle: Klucel (hydroxypropylcellulose) (HPC), higher = longer survival) was 35 % of control and 42 % of control and the T/C (endpoint: median survival time, dose: 200.0 mg/kg/injection, schedule: Q01DX009 (ip), vehicle: Klucel (hydroxypropylcellulose) (HPC), higher = longer survival) was 30 % of control and 32 % of control.
